Test results as given in patent US11434205B2, “Substituted imidazole carboxylate derivatives and the use thereof” (priority 2018, dated 2022).
Where two headings read alike, the source gives them in different places.

Legend:
rats [1] = assay: Loss of righting reflexes (LORR) assay in rats, ED50 by up and down method; format: in vivo, rat; conditions: Rattus norvegicus, tail vein, class symbols
Outline: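 Adult male Sprague-Dawley rats (250-300 g) dosed i.v. via tail vein at 0.1 mL/s. Anesthesia scored as loss of righting reflex lasting >30 s; ED50 derived by up-and-down method.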

rats [2] = system: rats
Procedure: Adult male Sprague-Dawley rats (250-300 g) were selected for the experiment. […] The anesthesia effects of the compounds were assessed in rats using a LORR assay and a period >30 s was considered as an indicator of general anesthesia. Then the up and down method was used to determine 50% effective dose (ED50). The drugs were administered through the tail vein of rats in a volume of 0.6 mL and at a rate of 0.1 mL/s.

rats [3] = assay: Pharmacological characteristics at equivalent doses (2×ED50) in rats; conditions: 2×ED50, tail vein; for Adverse reactions: Red urine (incidence): DMSO solution (DMSO alone 10/10); for Onset time: time of LORR; for Adverse reactions: Tremor (incidence): animals affected/animals
Outline: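 Adult male Sprague-Dawley rats (250-300 g, n=8) received each drug at twice its ED50 via tail vein (0.6 mL at 0.1 mL/s). Onset of anesthesia taken as time to LORR.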

[4] = system: secretion of corticosterone, H295R cell line; assay: cells; format: cell-based; conditions: for Corticosterone as an indicator to determine the presence of inhibition: H295R; for EC50: Homo sapiens, NCI-H295R, read-out: EC50 (Corticosterone)
Procedure: (§1) The Effects of the Compounds on Adrenocortical Function In Vitro Test
(§2) Then secretion of the cortisol and corticosterone in the supernatant, was measured using HPLC-MS/MS method to determine whether the compounds of the present invention had adrenotoxic potential.

[5] = system: secretion of cortisol, H295R cell line; assay: cells; format: cell-based; conditions: for Cortisol as an indicator to determine the presence of inhibition: H295R; for EC50: Homo sapiens, NCI-H295R, read-out: EC50 (Cortisol)
Procedure: as §1, §2

rats [6] = format: in vivo, rat; conditions: rats of the MAP/HR figures, 2×ED50, tail vein; same value in min
Outline: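 Rats implanted with telemetry (left ventricular and abdominal aortic catheters, ECG leads) at least one week before recording; compounds given via lateral tail-vein catheter. MAP and HR sampled every 15 s for 30 min before and after dosing to judge hemodynamic stability.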

rats [7] = system: rats; remark: listed apart in the source
Procedure: Pharmacological Effects of the Compounds on Continuous Infusion in Rats
Adult male Sprague-Dawley rats with body weight ranging from 250 to 300 gm were selected for continuous infusion test. […] Time to recovery of righting reflex from stopping infusion, and time to fully awake from stopping infusion were recorded.

rats [8] = format: in vivo, rat; conditions: rats of the MAP/HR figures, 2×ED50, tail vein
[9] = emulsion, continuous infusion at 2×MIR
[10] = continuous tail vein infusion at 2×MIR, LORR maintained 1 hour, Table C4

SMILES | ED50 (rats [1]) | Approximate therapeutic index (rats [2]) | Minimal lethal dose (rats [2]) | Adverse reactions: Restlessness (incidence) (rats [3]) | Righting reflex duration (rats [3]) | Adverse reactions: Red urine (incidence) (rats [3]) | Onset time (rats [3]) | Corticosterone as an indicator to determine the presence of inhibition ([4]; Table A3) | Cortisol as an indicator to determine the presence of inhibition ([5]; Table A3) | EC50 [5] | recovery time of the test animals' righting reflex (rats [6]) | Recovery time after stopping infusion (rats [7]; after 1 hour infusion at 2×MIR) | Adverse reactions: Tremor (incidence) (rats [7]; continuous infusion 2×MIR) | Onset time (rats [7]; [9]) | recovery time of the test animals' righting reflex (rats [8]) | EC50 [4] | Corticosterone as an indicator to determine the presence of inhibition ([4]; Table B3) | Cortisol as an indicator to determine the presence of inhibition ([5]; Table B3) | also measured
C[C@H](c1ccccc1)n1cncc1C(=O)OCC1CC(F)(F)C1 [Compound A12] | 0.5 to 1 mg/kg | >16 | >10 mg/kg | Restlessness (2/8), Red urine | 4.04 ± 1.65 min | (8/8) | 0.16 ± 0.06 min | 0 | 0 | > 1 µM | 4.23 min | 13 to 16 min | Tremor (4/6) | 3 to 4 min | 254 s | – | – | – | –
CC(OC(=O)c1cncn1[C@H](C)c1ccccc1)C1CC1 (stereo partly drawn) [Compound A16] | 0.1 to 0.5 mg/kg | >33 | >10 mg/kg | – | 2.63 ± 1.20 min | 8/8 | 0.16 ± 0.07 min | 0 | 0 | > 1 µM | 2.78 min | 12 to 14 min | Tremor (3/6) | 2 to 3 min | 167 s | > 1 µM | – | – | Adverse reactions: Tremor (incidence) (rats [3]): 2/8
C[C@H](c1ccccc1)n1cncc1C(=O)OC1CCC1 [Compound A17] | 0.5 to 1 mg/kg | >11 | >6 mg/kg | – | 5.78 ± 2.28 min | Red urine (8/8) | 0.13 ± 0.03 min | 0 | 0 | > 10 µM | 5.45 min | 19 to 25 min | Tremor (2/6) | 2 to 3 min | 327 s | > 10 µM | – | – | Adverse reactions: Tongue stretching (incidence) (rats [3]): Tongue stretching (2/8),
C[C@H](c1ccccc1)n1cncc1C(=O)OCCC1CCC1 [Compound A18] | 0.1 to 0.5 mg/kg | >22 | >5 mg/kg | – | 4.77 ± 1.73 min | Red urine (8/8) | 0.20 ± 0.09 min | 0 | 0 | > 1 µM | 4.55 min | 11 to 15 min | Tremor (5/6) | 3 to 4 min | 273 s | > 1 µM | – | – | –
C[C@H](c1ccccc1)n1cncc1C(=O)OCC1(C)COC1 [Compound B5] | 0.1 to 0.5 mg/kg | >11 | >10 mg/kg | – | 3.98 ± 1.34 min | Red urine (8/8) | 0.11 ± 0.02 min | – | – | > 1 µM | 4.25 min | 12 to 14 min | Tremor (2/6) | 3 to 4 min | 255 s | > 10 µM | 0 | 0 | –
CCC1(COC(=O)c2cncn2[C@H](C)c2ccccc2)COC1 [Compound B9] | 0.5 to 1 mg/kg | >12 | >18 mg/kg | 1/8 | 1.98 ± 1.21 min | 8/8 | 0.39 ± 0.1 min | – | – | > 10 µM | 1.82 min | 10 to 13 min | 1/6 | 2 to 3 min | 109 s | > 10 µM | 0 | 0 | Adverse reactions: Restlessness (incidence) (rats [7]; continuous infusion 2×MIR): 2/6
CCCC1(OC(=O)c2cncn2[C@H](C)c2ccccc2)COC1 [Compound B19] | 0.5 to 1 mg/kg | >11 | >20 mg/kg | – | 1.99 ± 1.39 min | 8/8 | 0.31 ± 0.13 min | – | – | > 10 µM | 2.08 min | 12 to 17 min | Tremor (5/6) | 3 to 4 min | 125 s | > 10 µM | 0 | 0 | Adverse reactions: Tremor (incidence) (rats [3]): 2/8
CC(=O)C1(OC(=O)c2cncn2[C@H](C)c2ccccc2)COC1 [Compound C3] | 0.5 to 1 mg/kg | >14 | >10 mg/kg | Restlessness (3/8), Red | 1.31 ± 0.95 min | urine (8/8) | 0.36 ± 0.12 min | – | – | > 1 µM | 1.25 min | – | – | – | 75 s | > 1 µM | – | – | Corticosterone as an indicator to determine the presence of inhibition ([4]; Table C3): 0; Cortisol as an indicator to determine the presence of inhibition ([5]; Table C3): 0; Onset time (rats [7]; [10]): 3 to 4 min; Recovery time after stopping infusion (rats [7]; [10]): 10 to 14 min; Types and incidence of adverse reactions (rats [7]; [10]): Restlessness (2/6), Tremor (3/6)
